# Test results as given in US6423717B1, “Sulphonamide derivatives, process for their preparation, and their use as medicaments” (SmithKline Beecham p.l.c., priority 1996, dated 2002).
# pKi: −log10 of the molar value.
# Target: T1, human cloned 5-HT6 receptors (Homo sapiens, UniProt P50406)
# T1 construct: host or cells: HeLa cells expressing 5-HT6 (HeLa-5HT6), washed membranes
# Assay: 5-HT6 receptor binding assay, [3H]-LSD displacement on washed membranes of HeLa-5HT6 cells
# Conditions: radio-ligand [3H]-LSD 2.0 nM, HeLa-5HT6 cell membranes, 37° C., Ki by Cheng and Prusoff
# Procedure: Method for assay of 5-HT6 antagonistic activity:
# The test compounds were dissolved in polyethylene glycol:dimethyl sulphoxide (1:1) at 1 or 10 mM and diluted to 0.1 mM using 5 mM tris buffer (pH 7.7 @25° C.). Dissolution was assisted by addition of 0.02 ml 5M HCl plus heating to 40° C. and sonication for 10 minutes. […] The incubation buffer was 50 mM Trizma (Sigma, UK) pH7.7 @25° C., 4 mM MgCl2.
# After incubation at 37° C., the mixtures were filtered using a Packard Filtermate in Packard TopCount format. Filters were washed with 4×1 ml aliquots of ice-cold incubation buffer. Filters were dried and impregnated with 0.04 ml of Microscint 20 (Packard). IC50 values were estimated from the counts per minute using a four parameter logistic curve fit within EXCEL (2). Ki values were calculated using the method of Cheng and Prusoff(3). pIC50 and pKi are the negative log10 of the molar IC50 and Ki respectively.
# T1 sequence (P50406 whole entry): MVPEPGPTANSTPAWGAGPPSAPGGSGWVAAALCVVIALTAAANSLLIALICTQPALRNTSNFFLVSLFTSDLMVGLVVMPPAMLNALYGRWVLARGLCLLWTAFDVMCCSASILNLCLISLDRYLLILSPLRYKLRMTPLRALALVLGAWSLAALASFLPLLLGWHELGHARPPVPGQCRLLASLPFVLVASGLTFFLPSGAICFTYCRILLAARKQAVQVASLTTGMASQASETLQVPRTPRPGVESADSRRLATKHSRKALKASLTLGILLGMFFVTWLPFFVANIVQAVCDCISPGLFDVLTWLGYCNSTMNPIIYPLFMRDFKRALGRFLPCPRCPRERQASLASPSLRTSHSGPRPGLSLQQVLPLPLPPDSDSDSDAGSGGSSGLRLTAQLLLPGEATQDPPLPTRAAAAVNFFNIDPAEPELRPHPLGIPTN
row,SMILES,pKi
1,"COc1ccc(NS(=O)(=O)c2c(C)sc3ccc(Cl)cc23)cc1N1CCN(C)CC1 [Example 65, 5-Chloro-2-methylbenzo[b]thiophene-3-sulfonic acid [4-methoxy-3-(4-methylpiperazin-1-yl)phenyl] amide]",> 8.00
2,"COc1ccc(NS(=O)(=O)c2cccc(I)c2)cc1N1CCNCC1 [Example 70, 3-Iodo-N-(4-methoxy-3-piperazin-1-ylphenyl)benzenesulfonamide]",> 8.00
3,"COc1ccc(NS(=O)(=O)c2cc(Cl)cc(Cl)c2)cc1N1CCNCC1 [Example 72, 3,5-Dichloro-N-(4-methoxy-3-piperazin-1-ylphenyl)benzenesulfonamide]",> 8.00
4,"COc1ccc(NS(=O)(=O)c2cccc(Br)c2)cc1N1CCNCC1 [Example 77, 3-Bromo-N-(4-methoxy-3-piperazin-1-ylphenyl)benzenesulfonamide]",> 8.00
5,"COc1ccc(NS(=O)(=O)c2cccc(Cl)c2)cc1N1CCNCC1 [Example 78, 3-Chloro-N-(4-methoxy-3-piperazin-1-ylphenyl)benzenesulfonamide]",> 8.00
6,"COc1ccc(NS(=O)(=O)c2ccc(Cl)c(Cl)c2)cc1N1CCNCC1 [Example 90, 3,4-Dichloro-N-(4-methoxy-3-piperazin-1-ylphenyl)benzenesulfonamide]",> 8.00

# Next, values leading:
row,pKi,SMILES
1,> 8.00,"COc1ccc(NS(=O)(=O)c2cccc(Br)c2)cc1N1CCN(C)CC1 [Example 11, 3-Bromo-N-[4-methoxy-3-(4-methylpiperazin-1-yl)phenyl]benzenesulfonamide]"
2,> 8.00,"COc1ccc(NS(=O)(=O)c2cc(Cl)cc(Cl)c2)cc1N1CCN(C)CC1 [Example 15, 3,5-Dichloro-N-[4-methoxy-3-(4-methylpiperazin-1-yl)phenyl]benzenesulfonamide]"
3,> 8.00,"COc1ccc(NS(=O)(=O)c2ccc3c(Cl)cccc3c2)cc1N1CCN(C)CC1 [Example 61, 5-Chloronaphthalene-2-sulfonic acid [4-methoxy-3-(4-methylpiperazin-1-yl)phenyl] amide]"
4,> 8.00,"COc1ccc(NS(=O)(=O)c2ccc3c(Cl)cccc3c2)cc1N1CCNCC1 [Example 79, 5-Chloronaphthalene-2-sulfonic acid(4-methoxy-3-piperazin-1-ylphenyl)amide]"
5,> 8.00,"COc1ccc(NS(=O)(=O)c2c(C)sc3ccc(Cl)cc23)cc1N1CCNCC1 [Example 84, 5-Chloro-2-methylbenzo[b]thiophene-3-sulfonic acid (4-methoxy-3-piperazin-1-ylphenyl) amide]"
6,> 8.00,"COc1ccc(NS(=O)(=O)c2ccc3ccccc3c2)cc1N1CCNCC1 [Example 87, Naphthalene-2-sulfonic acid(4-methoxy-3-piperazin-1-ylphenyl)amide]"
